Source: patent US20260152527A1, “NOVEL MELANOCORTIN ANALOGS” (priority 2022, published 2026)
Values after ≈ are worked out from the molar mass of the structure shown. Where two headings read alike, the source gives them in different places. Positions of bridges follow the written chain, without caps; N, C: chain ends. Non-standard residues stand in square brackets, D forms with d. Residues, ends and D or L forms follow the SMILES beside them. Triazole bridges read from a SMILES are 1,4-linked. *: point of attachment. Benzoyl(3,5-(OH)2) = O=C(c1cc(O)cc(O)c1)*; Lys(N3) = [N-]=[N+]=NCCCC[C@H](N)C(=O)O; dPhe(4-F) = N[C@H](Cc1ccc(F)cc1)C(=O)O; Nle = CCCC[C@H](N)C(=O)O; Pra = C#CC[C@H](N)C(=O)O

How the values were obtained:
[1] = In vivo topical administration pharmacokinetics of K173, rabbit (aqueous humor, cornea); conditions: for level at 0.5 h / level at 1 h / level at 2 h / level at 4 h / level at 8 h / level at 24 h: aqueous humor, topical or ocular; for level at 0.5 h: 30 Min post-last dose; for level at 1 h: 1 hr post-last dose; for level at 2 h: 2 hr post-last dose; for level at 4 h: 4 hr post-last dose; for level at 8 h: 8 hr post-last dose; for level at 24 h: 24 hr post-last dose
Experimental: Animals were not tranquilized for the examinations.
The remaining ocular tissues were discarded. Ocular samples were stored −80° C.
The rabbit efficacy model can be used to determine if QD or BID dosing is optimal for clinical utility.

[2] = Thermodynamic solubility study in water; format: physicochemical; conditions: Table 8; read-out: Solubility
Experimental: The study was conducted in water. Water was added into compound powder to make a 10 mg/mL solution. Sample tubes were shaken at the vibrator for 1 hour (1000 rpm) and then equilibrated overnight at room temperature. Samples were centrifuged at 12000 rpm for 10 min to precipitate undissolved particles. Supernatants were transferred from tubes to a new plate. An aliquot of the supernatant after centrifugation was taken from each well, then analyzed by LC-MS/MS. The concentration of the supernatants was quantified by a standard curve.

[3] = 5 mg/ml solution, 35 L per eye, Group 1 (single dose), topical 5 mg/ml, OD, Mean, read-out: K173 Concentrations (ng/mL) in Rabbit Aqueous Humor OD Sample, Mean
[4] = 5 mg/ml solution, 35 L per eye, Group 1 (single dose), topical 5 mg/ml, OS, Mean, read-out: K173 Concentrations (ng/mL) in Rabbit Aqueous Humor OS Sample, Mean
[5] = 5 mg/ml solution, 35 L per eye, Group 2 (4 doses), topical 5 mg/ml, OD, Mean, read-out: K173 Concentrations (ng/mL) in Rabbit Aqueous Humor OD Sample, Mean
[6] = 5 mg/ml solution, 35 L per eye, Group 2 (4 doses), topical 5 mg/ml, OS, Mean, read-out: K173 Concentrations (ng/mL) in Rabbit Aqueous Humor OS Sample, Mean
[7] = 5 mg/ml solution, 35 L per eye, Group 3 (8 BID doses), topical 5 mg/ml, OD, Mean, read-out: K173 Concentrations (ng/mL) in Rabbit Aqueous Humor OD Sample, Mean
[8] = 5 mg/ml solution, 35 L per eye, Group 3 (8 BID doses), topical 5 mg/ml, OS, Mean, read-out: K173 Concentrations (ng/mL) in Rabbit Aqueous Humor OS Sample, Mean
[9] = 5 mg/ml, Group 1 (single dose), topical 5 mg/ml, OD, Mean, read-out: K173 Concentrations (ng/mL) in Rabbit Aqueous Humor OD Sample, Mean
[10] = 5 mg/ml, Group 1 (single dose), topical 5 mg/ml, OS, Mean, read-out: K173 Concentrations (ng/mL) in Rabbit Aqueous Humor OS Sample, Mean
[11] = 5 mg/ml, Group 1 (single dose), topical 5 mg/ml, OS, individual animals, read-out: K173 Concentrations (ng/mL) in Rabbit Aqueous Humor OS Sample
[12] = 5 mg/ml, Group 2 (4 doses), topical 5 mg/ml, OD, Mean, read-out: K173 Concentrations (ng/mL) in Rabbit Aqueous Humor OD Sample, Mean
[13] = 5 mg/ml, Group 2 (4 doses), topical 5 mg/ml, OS, Mean, read-out: K173 Concentrations (ng/mL) in Rabbit Aqueous Humor OS Sample, Mean
[14] = 5 mg/ml, Group 2 (4 doses), topical 5 mg/ml, OD, individual animals, read-out: K173 Concentrations (ng/mL) in Rabbit Aqueous Humor OD Sample
[15] = 5 mg/ml, Group 3 (8 BID doses), topical 5 mg/ml, OD, Mean, read-out: K173 Concentrations (ng/mL) in Rabbit Aqueous Humor OD Sample, Mean
[16] = 5 mg/ml, Group 3 (8 BID doses), topical 5 mg/ml, OS, Mean, read-out: K173 Concentrations (ng/mL) in Rabbit Aqueous Humor OS Sample, Mean

With `CCCC[C@H](NC(=O)c1cc(O)cc(O)c1)C(=O)N[C@H]1CCCCn2cc(nn2)C[C@@H](C(N)=O)NC(=O)[C@H](Cc2c[nH]c3ccccc23)NC(=O)[C@H](CCCNC(=N)N)NC(=O)[C@@H](Cc2ccc(F)cc2)NC(=O)[C@H](Cc2c[nH]cn2)NC1=O` [KR-072, HyBA-Nle-[Lys(N3)-His-Dphe(4-F)-Arg-Trp-Pra]-NH2] ({Benzoyl(3,5-(OH)2)}-[Nle][Lys(N3)]H[dPhe(4-F)]RW[Pra]-NH2; triazole 2-7) the level at 0.5 h [1, 3] was 8.44 ng/mL, the level at 0.5 h [1, 4] was 1.36 ng/mL and the level at 1 h [1, 3] was 1.13 ng/mL. It also gave a level at 1 h [1, 4] of 5.22 ng/mL, a level at 0.5 h [1, 5] of 1.9 ng/mL and a level at 0.5 h [1, 6] of 3.47 ng/mL. The level at 1 h [1, 5] was 2.75 ng/mL, the level at 1 h [1, 6] was 2.49 ng/mL and the level at 2 h [1, 7] was 10.5 ng/mL. It also gave a level at 2 h [1, 8] of 12.1 ng/mL, a level at 4 h [1, 7] of 11.6 ng/mL and a level at 4 h [1, 8] of 7.33 ng/mL. For the same compound, the level at 8 h [1, 7] was 5.92 ng/mL, the level at 8 h [1, 8] was 6.42 ng/mL and the level at 24 h [1, 7] was 3.79 ng/mL. The level at 24 h [1, 8] was 4.45 ng/mL, the level at 2 h [1, 9] was 3.58 ng/mL and the level at 2 h [1, 10] was 1.89 ng/mL. The level at 4 h [1, 9] was 2.68 ng/mL, the level at 4 h ([1]; 5 mg/ml, Group 1 (single dose), topical 5 mg/ml, OD, individual animals, read-out: K173 Concentrations (ng/mL) in Rabbit Aqueous Humor OD Sample) was 2.94 ng/mL and the level at 4 h [1, 10] was 3.35 ng/mL. It also gave a level at 4 h [1, 11] of 3.56 ng/mL, a level at 8 h [1, 9] of 5.77 ng/mL and a level at 8 h [1, 10] of 4.2 ng/mL. It also gave a level at 8 h [1, 11] of 3.34 ng/mL, a level at 24 h [1, 9] of 3.22 ng/mL and a level at 24 h [1, 10] of 2.46 ng/mL. For the same compound, the level at 24 h [1, 11] was 2.34 ng/mL, the level at 2 h [1, 12] was 5.76 ng/mL and the level at 2 h [1, 13] was 7.84 ng/mL. It also gave a level at 4 h [1, 12] of 4.61 ng/mL, a level at 4 h [1, 13] of 3.86 ng/mL and a level at 8 h [1, 12] of 10.9 ng/mL. For the same compound, the level at 8 h [1, 14] was 11.3 ng/mL, the level at 8 h [1, 13] was 14.8 ng/mL and the level at 24 h [1, 12] was 1.98 ng/mL. For the same compound, the level at 24 h [1, 14] was 2.34 ng/mL, the level at 24 h [1, 13] was 2.33 ng/mL and the level at 24 h ([1]; 5 mg/ml, Group 2 (4 doses), topical 5 mg/ml, OS, individual animals, read-out: K173 Concentrations (ng/mL) in Rabbit Aqueous Humor OS Sample) was 2.3 ng/mL. For the same compound, the level at 0.5 h [1, 15] was 10.3 ng/mL, the level at 0.5 h [1, 16] was 8.11 ng/mL and the level at 1 h [1, 15] was 5 ng/mL. The level at 1 h ([1]; 5 mg/ml, Group 3 (8 BID doses), topical 5 mg/ml, OD, individual animals, read-out: K173 Concentrations (ng/mL) in Rabbit Aqueous Humor OD Sample) was 5.13 ng/mL, the level at 1 h [1, 16] was 6.56 ng/mL and the level at 1 h ([1]; 5 mg/ml, Group 3 (8 BID doses), topical 5 mg/ml, OS, individual animals, read-out: K173 Concentrations (ng/mL) in Rabbit Aqueous Humor OS Sample) was 7.48 ng/mL. For the same compound, the “Aqueous humor levels 24 hours after last dose” value ([1]; topical 5 mg/ml, all dose groups) was “measurable levels were detected after 24 hours in all dose groups”, the “ocular surface retention and Tmax” value ([1]; topical, after a single dose) was “prolonged ocular surface retention and Tmax” and the solubility [2] was 6470 µg/mL (≈ 5.58 mM).
